Source: patent publication US11219614B2, “Combination cancer therapy with pentaaza macrocyclic ring complex and ascorbate compound” (Galera Labs, LLC, priority 2016, dated 2022)

Assays:
Lung cancer cells (H292) = test: clonogenic cell survival assay, H292; format: cell-based; settings: ascorbate 1 h in combination with 5, 10 or 20 μM GC4419 24 h; compared to monotherapies; FIG. 2
Description: (§1) FIG. 2 is a plot showing the surviving fraction of H292 cells for increasing amounts of ascorbate, as determined by a clonogenic cell survival assay to used determine the effects of the compound alone and in combination with a pentaaza macrocyclic ring complex (GC4419). Lung cancer cells (H292) were exponentially grown in culture for 48 hours. The cells were then treated with 5-20 μM GC4419 for 24 hours, and ascorbate (Asc) for one hour, followed immediately by clonogenic assay. The cells were trypsinized, counted, replated at varying lower densities and incubated. Plates were stained and counted for clonogenic survival assays.
as §1, with “The effect” for “FIG. 2 is a plot showing the surviving fraction”, “ascorbate was tested in” for “H292 cells for increasing amounts of ascorbate, as determined by”, “to” for “to used”, “hour” for “hour,”, “followed” for “followed immediately”, “by immediate” for “by”

[1] = test system: head and neck squamous cell carcinoma cells (SCC25); test: clonogenic cell survival assay, SCC25; format: cell-based, Human; settings: ascorbate 1 h in combination with 5, 10 or 20 μM GC4419 24 h, both present at the same time; compared to monotherapies or sequential treatment with media replacement; FIG. 3
Description: FIG. 3 is a plot showing the surviving fraction of SCC25 cells for increasing amounts of ascorbate, as determined by a clonogenic cell survival assay used to determine the effects of the compound alone and in combination with a pentaaza macrocyclic ring complex (GC4419). Human head and neck squamous cell carcinoma cells (SCC25) were exponentially grown in culture for 24 hours. The cells were then treated with 5-20 μM GC4419 for 24 hours and ascorbate (Asc) for one hour, followed by immediate clonogenic assay. The cells were trypsinized, counted, replated at varying lower densities and incubated. Plates were stained and counted for clonogenic survival assays.
The effect of ascorbate was tested in a clonogenic cell survival assay to determine the effects of the compound alone and in combination with a pentaaza macrocyclic ring complex (GC4419). Human head and neck squamous cell carcinoma cells (SCC25) were exponentially grown in culture for 24 hours. The cells were then treated with 5-20 μM GC4419 for 24 hours, and ascorbate (Asc) for one hour, followed by immediate clonogenic assay. The cells were trypsinized, counted, replated at varying lower densities and incubated. Plates were stained and counted for clonogenic survival assays.

[2] = test system: tongue carcinoma cells (Cal27); test: clonogenic cell survival assay, Cal27; format: cell-based, Human
Description: FIG. 4 is a plot showing the surviving fraction of Cal27 cells for increasing amounts of ascorbate, as determined by a clonogenic cell survival assay used to determine the effects of the compound alone and in combination with a pentaaza macrocyclic ring complex (GC4419). Human tongue carcinoma cells (Cal27) were exponentially grown in culture for 48 hours. The cells were then treated with 5-20 μM GC4419 for 24 hours, and ascorbate (Asc) for one hour, followed by immediate clonogenic assay. The cells were trypsinized, counted, replated at varying lower densities and incubated.
(§2) FIG. 6 is a graph showing the surviving fraction of Cal 27 cells treated with ascorbate and combinations with including ascorbate. The effects of ascorbic acid (AA) in combination with a pentaaza macrocyclic ring complex (GC4419) was tested in a clonogenic cell survival assay to determine the effects of the combination alone and when paired with ionizing radiation. Human tongue carcinoma cells (Cal27) were exponentially grown in culture for 48 hours. The cells were then treated with 5 μM GC4419 for 3 hours and 10 pmol/cell ascorbate for 1 hour, either alone, in combination (GC+AA), and/or paired with a dose of ionizing radiation (2 Gy). After the ionizing radiation dose, the cells were trypsinized, counted, replated at varying lower densities and incubated. Plates were stained and counted for clonogenic survival assays.
The effect of ascorbate was tested in a clonogenic cell survival assay to determine the effects of the compound alone and in combination with a pentaaza macrocyclic ring complex (GC4419). Human tongue carcinoma cells (Cal27) were exponentially grown in culture for 48 hours. The cells were then treated with 5-20 μM GC4419 for 24 hours, and ascorbate (Asc) for one hour, followed by immediate clonogenic assay. The cells were trypsinized, counted, replated at varying lower densities and incubated. Plates were stained and counted for clonogenic survival assays.
as §2, with “The” for “FIG. 6 is a graph showing the surviving fraction of Cal 27 cells treated with ascorbate and combinations with including ascorbate. The”

[Cl][Mn][Cl].c1cc2nc(c1)CN[C@H]1CCCC[C@@H]1NCCN[C@H]1CCCC[C@@H]1NC2 [GC4419]
cell killing (clonogenic survival) (Lung cancer cells (H292)): significant enhancements in cell killing | cell killing (clonogenic survival) [1]: significant enhancements in cell killing | synergistic activity of the combination ([2]; 5 μM GC4419 3 h + 10 pmol/cell ascorbate 1 h (GC+AA), FIG. 6): more than merely an additive effect | cell killing (clonogenic survival) ([2]; 5 μM GC4419 3 h + 10 pmol/cell ascorbate 1 h (GC+AA), compared to control and to either alone, FIG. 6): significant enhancements in cell killing | sensitization to ionizing radiation ([2]; GC+AA+IR (2 Gy) compared to IR 2Gy alone, FIG. 6): sensitized the cancer cells to radiation | cell killing (clonogenic survival) ([2]; ascorbate 1 h in combination with 5, 10 or 20 μM GC4419 24 h, compared to monotherapies, FIG. 4): significant enhancements in cell killing
